Target: Ras-related protein Rab-2A (Canis lupus familiaris, UniProt P61105)
Assay: Rab2 wildtype GTP-binding inhibitors, SAR follow-up, biochemical, additional analogs, bead-based flow cytometry, multiplex (AID 2046)
Settings: not given

Ras-related protein Rab-2A, sequence (P61105 whole entry): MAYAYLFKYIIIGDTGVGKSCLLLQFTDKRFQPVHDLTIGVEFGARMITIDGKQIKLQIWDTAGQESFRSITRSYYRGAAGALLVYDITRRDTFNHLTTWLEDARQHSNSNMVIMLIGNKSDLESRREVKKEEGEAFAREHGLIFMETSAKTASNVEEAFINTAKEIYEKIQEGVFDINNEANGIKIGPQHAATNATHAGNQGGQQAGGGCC

Row | SMILES | EC50
1 | O=C1Nc2c(Cl)cccc2C1=C1Nc2ccccc2C1=O | 30 µM
2 | O=C1Nc2c(Br)cccc2C1=C1Nc2ccccc2C1=O | 30 µM
3 | O=C1Nc2c(F)cccc2C1=C1Nc2ccccc2C1=O | 30 µM
4 | O=C1NC(=O)/C(=C2/C(=O)Nc3ccccc32)N1 | 30 µM
5 | O=C1Nc2ccc(Br)cc2C1=C1Nc2ccccc2C1=O | 30 µM
6 | O=C1Nc2ccccc2/C1=C1/Nc2ccccc2C1=O [2-[(3Z)-2-oxo-2,3-dihydro-1H-indol-3-ylidene]-2,3-dihydro-1H-indol-3-one] | 30 µM
7 | O=C1N=c2ccccc2=C1c1[nH]c2ccccc2c1NO [3-[3-(hydroxyamino)-1H-indol-2-yl]-2-indolone] | 30 µM
8 | O=C1N=c2ccc(Br)cc2=C1c1[nH]c2ccccc2c1NO [5-bromanyl-3-[3-(oxidanylamino)-1H-indol-2-yl]indol-2-one] | 65.2 µM
9 | O=C1N=c2c(Br)cccc2=C1c1[nH]c2ccccc2c1NO [7-bromanyl-3-[3-(oxidanylamino)-1H-indol-2-yl]indol-2-one] | 65.8 µM
10 | O=C1N=c2c(Cl)cccc2=C1c1[nH]c2ccccc2c1NO [7-chloro-3-[3-(hydroxyamino)-1H-indol-2-yl]-2-indolone] | 30 µM
11 | O=C1N=c2c(F)cccc2=C1c1[nH]c2ccccc2c1NO [7-fluoro-3-[3-(hydroxyamino)-1H-indol-2-yl]-2-indolone] | 30 µM
12 | O=C1NC(=S)N/C1=C1\C(=O)Nc2ccccc21 [(3Z)-3-(5-oxo-2-sulfanylideneimidazolidin-4-ylidene)-1H-indol-2-one] | 30 µM
13 | COc1ccc2cc([C@H](C)C(=O)O)ccc2c1 [UNM-0000306098] | 30 µM
14 | C[C@@H](C(=O)O)c1cccc(Oc2ccccc2)c1 [calcium;2-(3-phenoxyphenyl)propanoic acid;hydrate] | 30 µM
15 | COc1ccc2cc([C@@H](C)C(=O)O)ccc2c1 [sodium;(2R)-2-(6-methoxy-2-naphthalenyl)propanoate] | 1.74 µM

Same assay, conditions: inactive by the depositor's call

Row | SMILES | EC50
16 | O=C1Nc2cccc(Br)c2/C1=C1/Cc2ccccc2C1=O | 30 µM
17 | COc1ccc(S(=O)(=O)n2c(N)c(C#N)c(-c3ccccc3)c2C(=O)c2ccc(Br)cc2)cc1 | 30 µM
18 | O=[N+]([O-])c1ccc(C#Cc2ccccc2)cc1 | 30 µM
19 | O=C(C#Cc1ccccc1)c1ccc(OC(F)(F)F)cc1 | 30 µM
20 | COc1ccc(C(=O)C#Cc2ccccc2)cc1 [1-(4-methoxyphenyl)-3-phenyl-2-propyn-1-one] | 30 µM
21 | O=C(C#Cc1ccccc1)c1ccc([N+](=O)[O-])cc1 [1-(4-nitrophenyl)-3-phenyl-2-propyn-1-one] | 30 µM
22 | CC(C(=O)O)c1cccc(C(=O)c2ccccc2)c1 (configuration not stated) [2-(3-benzoylphenyl)propanoic acid] | 30 µM
23 | COc1ccc2cc(CC(=O)O)ccc2c1 [2-(6-methoxynaphthalen-2-yl)ethanoic acid] | 30 µM
24 | CC(=O)Oc1ccccc1C(=O)O [2-(acetyloxy)benzoic acid] | 30 µM
25 | CCCCS(=O)(=O)n1c(N)c(C#N)c(-c2cc(OC)c(OC)c(OC)c2)c1C(=O)c1ccccc1 [2-amino-5-benzoyl-1-butylsulfonyl-4-(3,4,5-trimethoxyphenyl)-3-pyrrolecarbonitrile] | 30 µM
26 | COc1ccc(S(=O)(=O)n2c(N)c(C#N)c(-c3cncc(Br)c3)c2C(=O)c2ccccc2)cc1 [2-amino-5-benzoyl-4-(5-bromo-3-pyridinyl)-1-(4-methoxyphenyl)sulfonyl-3-pyrrolecarbonitrile] | 30 µM
27 | COc1ccc(-c2c(C#N)c(N)n(S(C)(=O)=O)c2C(=O)c2ccccc2)cc1Br [2-azanyl-4-(3-bromanyl-4-methoxy-phenyl)-1-methylsulfonyl-5-(phenylcarbonyl)pyrrole-3-carbonitrile] | 30 µM
28 | COc1cc(-c2c(C#N)c(N)n(S(=O)(=O)c3c(C(C)C)cc(C(C)C)cc3C(C)C)c2C(=O)c2ccccc2)cc(OC)c1OC [2-azanyl-5-(phenylcarbonyl)-4-(3,4,5-trimethoxyphenyl)-1-[2,4,6-tri(propan-2-yl)phenyl]sulfonyl-pyrrole-3-carbonitrile] | 30 µM
29 | O=C(C#Cc1ccccc1)c1cccnc1 [3-phenyl-1-pyridin-3-ylprop-2-yn-1-one] | 30 µM
30 | COC(=O)c1ccc(C(=O)C#Cc2ccccc2)cc1 [4-(1-oxo-3-phenylprop-2-ynyl)benzoic acid methyl ester] | 30 µM
31 | N#Cc1ccc(C(=O)C#Cc2ccccc2)cc1 [4-(3-phenylprop-2-ynoyl)benzenecarbonitrile] | 30 µM
32 | O=C1Nc2c(Br)cccc2/C1=C1/Cc2ccccc2C1=O [(3E)-7-bromo-3-(3-oxo-1H-inden-2-ylidene)-1H-indol-2-one] | 30 µM
33 | CC(C)Cc1ccc([C@H](C)C(=O)O)cc1 [(S)-2-(4-Isobutyl-phenyl)-propionic acid] | 30 µM
34 | O=C1Nc2ccccc2/C1=C1/Cc2ccccc2C1=O [UNM-0000305763] | 30 µM
35 | N#Cc1c(-c2ccc(Cl)cc2)c(C(=O)c2ccccc2)n(S(=O)(=O)c2ccc([N+](=O)[O-])cc2)c1N [UNM-0000305780] | 30 µM
36 | COc1ccc(S(=O)(=O)n2c(N)c(C#N)c(-c3cc(Br)c(OC)c(OC)c3)c2C(=O)c2ccccc2)cc1 [UNM-0000305782] | 30 µM
37 | O=C(C#Cc1ccccc1)c1ccccc1[N+](=O)[O-] [UNM-0000306038] | 30 µM
38 | O=C(C#Cc1ccccc1)c1ccccc1 [UNM-0000306039] | 30 µM
39 | O=C(C#Cc1ccccc1)c1ccc(Cl)cc1 [UNM-0000306055] | 30 µM
40 | O=C(C#Cc1ccccc1)c1ccc(F)cc1 [UNM-0000306059] | 30 µM
41 | CC1=C(CC(=O)O)c2cc(F)ccc2/C1=C/c1ccc([S+](C)[O-])cc1 (configuration not stated) [UNM-0000306136] | 30 µM
42 | CSc1ccc(/C=C2/C(C)=C(CC(=O)O)c3cc(F)ccc32)cc1 [{6-Fluoro-2-methyl-3-[1-(4-methylsulfanyl-phenyl)-meth-(E)-ylidene]-3H-inden-1-yl}-acetic acid] | 30 µM

Reference: BindingDB's records for doi:10.7270/Q2V40SNS (Nmmlsc, 2009)
